According to PubChem BioAssay (NCI):
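Values below derive from 48-hour exposures of cells grown in 96-well plates, with endpoints linearly interpolated between the two concentrations bracketing the appropriate inhibition level. GI50 marks 50% less growth. At the TGI there is no net growth.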

Experiments:
Test in all cases: inhibition of tumour cell growth, NCI panel, 48 h
[1] = system: MDA-N
[2] = system: LXFL 529 NSCLC
[3] = system: RXF-631 renal
[4] = system: SNB-78 CNS
[5] = system: DMS 273 small cell lung
[6] = system: DMS 114 small cell lung
[7] = system: HOP-18 NSCLC
[8] = system: DLD-1 colon
[9] = system: XF 498 CNS

Row | SMILES | TGI [1] | TGI [2] | TGI [4] | TGI [5] | TGI [6] | TGI [7] | TGI [8] | TGI [9] | also measured
1 | C=C1C(=O)O[C@@H]2C[C@@H](C)[C@@H]3[C@@H](OC4OC(COC(C)=O)C(O)C(O)C4O)CC(=O)[C@@]3(C)C[C@H]12 (some centres undefined) | 3.51 µM | – | – | – | – | – | – | – | –
2 | c1cncc(C(Nc2cccc3cccnc23)Nc2cccc3cccnc23)c1 | > 100 µM | – | – | – | – | – | – | – | –
3 | Cc1c(C(=O)CC(=O)C(=O)Nc2cccc(C(F)(F)F)c2)[n+](=O)c2ccccc2n1[O-] | – | 14.1 µM | 25.2 µM | 10.3 µM | 4.43 µM | 25.5 µM | – | – | TGI [3]: 11 µM
4 | COC1CC(OS(=O)(=O)c2ccc(C)cc2)C(OS(=O)(=O)c2ccc(C)cc2)C(COS(=O)(=O)c2ccc(C)cc2)O1 (centres undefined) | – | 18.7 µM | > 100 µM | 18.6 µM | 15.1 µM | 8.36 µM | 22.7 µM | – | –
5 | CC[O-].CC[O-].O=Nc1ccc2cc([O-])ccc2c1.O=Nc1ccc2cc([O-])ccc2c1.[Ti+4] | – | – | – | 3.11 µM | 6.06 µM | 2.82 µM | > 21.9 µM | – | GI50 [8]: 2.45 µM; GI50 [4]: 2.79 µM; GI50 [5]: 1.68 µM; GI50 [6]: 1.95 µM; GI50 [7]: 1.49 µM
6 | CCOC(=O)C#Cc1ccc(C#CC(=O)OCC)cc1 | 4.87 µM | – | – | – | – | – | – | – | –
7 | CC(C)(C)C(=O)C(c1ccc(-c2cscn2)cc1)c1ccc(-c2cscn2)cc1 | – | > 100 µM | 78.5 µM | > 100 µM | – | > 100 µM | > 100 µM | 80.5 µM | TGI [3]: > 100 µM
8 | CC1OC(OC2C(Oc3cc(O)c4c(=O)cc(-c5ccc(O)cc5)oc4c3)OC(CO)C(O)C2O)C(O)C(O)C1O (centres undefined) | – | > 100 µM | > 100 µM | > 100 µM | > 100 µM | > 100 µM | > 100 µM | > 100 µM | –
9 | CCOC(=O)NC(=O)c1cn(CCCOC(=O)CCCCCCCCC(=O)OCCCn2cc(C(=O)NC(=O)OCC)c(=O)[nH]c2=O)c(=O)[nH]c1=O | – | 79.8 µM | > 100 µM | 66.6 µM | 39.2 µM | 56.4 µM | 53.1 µM | 72.4 µM | –
10 | CNC1NC(=O)c2ccccc2N1Cc1ccc(F)cc1 (centres undefined) | > 100 µM | – | – | – | – | – | – | – | –
11 | O[C@]12CCCC[C@H]1CCC2 | – | > 100 µM | > 100 µM | > 100 µM | > 100 µM | – | – | > 100 µM | TGI [3]: > 100 µM
12 | CN(C)CCCn1c2c3ccccc3ccc2c2oc(=O)c3ccccc3c21 | – | 10 µM | 39 µM | 4.22 µM | 4.09 µM | 40.2 µM | 2.99 µM | 9.55 µM | –
13 | Cc1ccc(C2=Nc3ccccc3NC(=O)C2)cc1 | – | > 100 µM | > 100 µM | > 100 µM | > 100 µM | > 100 µM | > 100 µM | 93.4 µM | –
14 | COC[C@H]1OC(=O)c2coc3c2[C@@]1(C)C1=C(C3=O)[C@@H]2CCC(=O)[C@@]2(C)C[C@H]1OC(C)=O | > 100 µM | – | – | – | – | – | – | – | –
15 | COc1cc2c(cc1OC)[C@@H](C(O)c1ccccc1)NCC2 (some centres undefined) | – | > 100 µM | > 100 µM | > 100 µM | > 100 µM | – | > 100 µM | > 100 µM | TGI [3]: > 100 µM
16 | O=Cc1[nH]c2ccccc2c1Br | – | 60.6 µM | 44.1 µM | 36.3 µM | 44.7 µM | 83.4 µM | > 100 µM | 63.7 µM | TGI [3]: 44.1 µM
17 | CCCCC(=O)[O-].N.N.N.N.N.[Co+3].[O-][Cl+3]([O-])([O-])[O-] | – | > 100 µM | > 100 µM | > 100 µM | – | – | > 100 µM | – | GI50 [8]: > 100 µM; GI50 [2]: > 100 µM; GI50 [4]: > 100 µM; GI50 [5]: > 100 µM
18 | CCc1oc2ccccc2c1C(=O)c1cc(Br)c(O)c(Br)c1 | > 100 µM | – | – | – | – | – | – | – | –
19 | COC1=C(C(=O)OC(C)(C)C)[C@]2(C)C(C(=O)OC(C)(C)C)C(OC)=C(C(=O)OC(C)(C)C)[C@]2(C)C1C(=O)OC(C)(C)C (some centres undefined) | – | > 100 µM | > 100 µM | > 100 µM | > 100 µM | > 100 µM | > 100 µM | > 100 µM | –
20 | CC(=O)O[C@@H]1CC(C)C2CC2C2=C(C(O)OC2O)[C@@H]1C(C)CCC=C(C)C (some centres undefined) | – | 81.9 µM | 90.2 µM | 45.3 µM | 50.4 µM | – | 73.3 µM | 49.9 µM | –

Row | SMILES | TGI [1] | TGI [2] | TGI [4] | TGI [5] | TGI [6] | TGI [7] | TGI [8] | TGI [9] | also measured
21 | Cc1cc2c(c(C#N)c1C)NC(=O)C(CC(=O)O)C2=O (centres undefined) | – | > 100 µM | > 100 µM | > 100 µM | > 100 µM | > 100 µM | > 100 µM | > 100 µM | TGI [3]: > 100 µM
22 | COc1ccc2nc(NC(=O)C(=O)CC(=O)c3ccc(Cl)cc3)sc2c1 | – | > 100 µM | > 100 µM | > 100 µM | > 100 µM | > 100 µM | > 100 µM | > 100 µM | –
23 | Cc1ccc(S(=O)(=O)OCC23CCC(C4CC42)C2CC23)cc1 (centres undefined) | – | > 100 µM | – | > 100 µM | > 100 µM | > 100 µM | > 100 µM | – | TGI [3]: > 100 µM
24 | CNS(=O)(=O)NN(C)S(=O)(=O)c1ccc(Br)cc1 | – | > 100 µM | – | > 100 µM | > 100 µM | – | – | > 100 µM | TGI [3]: > 100 µM
25 | CC(=O)OC[C@@H]1[C@H]2CC(=O)O[C@H]2C[C@H]1OC(C)=O | – | > 100 µM | > 100 µM | > 100 µM | > 100 µM | > 100 µM | > 100 µM | – | –
26 | CCCN(CCC)C(=O)Cc1c2n(c3ccccc13)Cc1ccccc1-2 | – | > 100 µM | > 100 µM | > 100 µM | > 100 µM | > 100 µM | > 100 µM | > 100 µM | –
27 | CC(=S)NNC(=O)c1ccncc1 | – | > 100 µM | > 100 µM | > 100 µM | – | > 100 µM | > 100 µM | > 100 µM | –
28 | COc1ccc(C=NC23CC4CC(CC(C4)C2)C3)cc1 | – | – | > 100 µM | > 10 µM | > 100 µM | – | – | – | –
29 | NC1CCC[C@@H](O)[C@H]1O (some centres undefined) | > 100 µM | – | – | – | – | – | – | – | –
30 | CC(=O)Oc1cccc2c1C(=O)C(Br)(Br)CCC2 | 12.8 µM | 18.7 µM | 33.8 µM | 14.9 µM | 7.79 µM | 32.2 µM | 36.2 µM | 24.1 µM | TGI [3]: 35.5 µM
31 | CN(C)CCNC(=O)c1cc([N+](=O)[O-])ccn1 | 30.7 µM | – | – | – | – | – | – | – | –
32 | Cn1c2ccc([N+](=O)[O-])cc2c(=O)c2c(O)cc(O)cc21 | > 100 µM | – | – | – | – | – | – | – | –
33 | O=C(O)c1ccc([N+](=O)[O-])c2c(=O)c3ccccc3[nH]c12 | – | > 100 µM | > 100 µM | > 100 µM | > 100 µM | > 100 µM | > 100 µM | – | TGI [3]: > 100 µM
34 | COc1ccc(/C=C2\CNC/C(=C\c3ccc(OC)cc3)C2=O)cc1 | – | > 100 µM | > 100 µM | > 100 µM | > 100 µM | > 100 µM | > 100 µM | > 100 µM | –
35 | Cc1ccc2c(=O)[nH]sc2c1 | 27 µM | – | – | – | – | – | – | – | –
36 | O=C1NC2(O)c3ccccc3C(=O)C2(O)N1c1ccccc1 (centres undefined) | – | > 100 µM | – | – | > 100 µM | > 100 µM | > 100 µM | > 100 µM | TGI [3]: > 100 µM
37 | COc1cc2c(OC)c(c1)CCCC1=CC(=O)C=C(CCC2)C1=O | 30.2 µM | – | – | – | – | – | – | – | –
38 | C=CCN=C1N=C(CC(=O)OCC)CS1 | – | > 100 µM | > 100 µM | > 100 µM | > 100 µM | > 100 µM | > 100 µM | > 100 µM | –
39 | Cn1c(=O)c2[nH]c(COCc3nc4c([nH]3)c(=O)n(C)c(=O)n4C)nc2n(C)c1=O | > 100 µM | – | – | – | – | – | – | – | –
